Source: patent publication US20230054976A1, “METHODS FOR INHIBITION OF ALPHA-SYNUCLEIN mRNA USING SMALL MOLECULES” (The Scripps Research Institute, priority 2019, published 2023)

Key:
[1] = system: α-synuclein pre-formed fibrils (PFFs) toxicity in SH-SY5Y cells; test: Cell death assay: cytoprotection against α-synuclein pre-formed fibrils (LDH); format: cell-based, human; settings: 0.25-1 μM pretreatment 24 h, 50 μg/mL PFFs 48 h
Procedure: Cell death assay. The cytoprotective effect of Synucleozid was tested against α-synuclein PFFs. Human α-synuclein was expressed^78 and fibrillization induced as previously described^79. SH-SY5Y cells were pretreated with Synucleozid (0.25 μM to 1 μM) for 24 h and challenged with 50 μg/mL of α-synuclein PFFs for an additional 48 h in the presence of Synucleozid. Cell death was measured using LDH (Lactate Dehydrogenase) Cytotoxicity Detection Kit (Takara) according to the manufacturer's instructions and plotted either as optical density value or as percentage changes in comparison to respective controls. Monomeric α-synuclein (50 μg/mL) challenge was used as negative control for PFF cytotoxicity. Additional details are provided in the Supporting Information.
Cell death assay. The cytoprotective effect of Synucleozid was tested against α-synuclein preformed fibrils. […] To induce fibrillization of monomertic α-synuclein, the solution was subjected to shaking at 1000 rpm at 37° C. for 7 days on a thermomixer C (Eppendorf), and formation of fibrillar α-synuclein was monitored and confirmed by thioflavin-T assay (8). […] Cell death was measured using LDH (Lactate Dehydrogenase) Cytotoxicity Detection Kit (Takara) according to the manufacturer's instructions and plotted either as optical density value or as percentage changes in comparison to respective controls. […]

[2] = target: RNA-6 (A bulge mutated to U or G bulge); test: Competitive binding assay (2-AP), RNA-6
Procedure: EC50 was calculated from Eq. (1).

[3] = system: A-bulge-mutated RNA (fully paired RNA); test: Thermal melting experiment, fully paired RNA; format: binding
Text: Thermal melting experiment.

SNCA mRNA = test: Polysome profiling; format: cell-based, human; settings: 1 μM, 48 h
Procedure: Polysome profiling. Polysome profiling studies were completed similarly to previously described methods (9, 10). SH-SY5Y cells were treated with DMSO vehicle or Synucleozid (1 μM) at 50% confluency. After 48 h, 100 μg/mL (final concentration) cycloheximide (CHX) was added to dishes, and cells were incubated at 37° C. for 10 min. After two times washing with ice-cold 1×DPBS supplemented with 100 μg/mL CHX, cells were scraped with ice-cold 300 μL 1×DPBS supplemented with 100 μg/mL CHX. Three 100 mm dishes of cells were prepared and combined as one profiling sample. After centrifugation, cell pellets were lysed with 250 μL of ice-cold polysome extraction buffer [10 mM NaCl, 10 mM MgCl2, 10 mM Tris, pH 7.5, 1% Triton X-100, 1% sodium deoxycholate, 1 mM DTT supplemented with […] and 0.2 U/μL RNasin (Promega)]. The lysate was transferred to an ice-cold Eppendorf tube, gently vortexed and centrifuged for 15 min at 13,200 rpm, 4° C. The supernatant was layered onto 10 mL linear 10-50% sucrose gradients containing 20 mM HEPES (pH 7.4), 5 mM MgCl2, 100 mM KCl, […], and 100 µg/mL CHX. The sucrose gradients were centrifuged at 40,000 rpm for 2 h at 4° C. then fractionated using a fraction collector (Brandel Inc.). The absorbance of cytosolic RNA was recorded at 254 nm by an inline UV monitor. A 400 μL aliquot from each fraction was collected. Then, RNA extraction, cDNA synthesis and RT-qPCR were performed as described above.

[4] = target: T1, IRP-2:SNCA IRE RNA complex (Homo sapiens, UniProt P48200); test: In vitro displacement of IRPs by gel mobility shift assay, IRP-2; format: binding; settings: 0.2, 1, 5 μM; pre-incubation 1-60 min
T1 construct: purchased Abnova
T1 sequence (P48200 whole entry, species assumed, one chain of several): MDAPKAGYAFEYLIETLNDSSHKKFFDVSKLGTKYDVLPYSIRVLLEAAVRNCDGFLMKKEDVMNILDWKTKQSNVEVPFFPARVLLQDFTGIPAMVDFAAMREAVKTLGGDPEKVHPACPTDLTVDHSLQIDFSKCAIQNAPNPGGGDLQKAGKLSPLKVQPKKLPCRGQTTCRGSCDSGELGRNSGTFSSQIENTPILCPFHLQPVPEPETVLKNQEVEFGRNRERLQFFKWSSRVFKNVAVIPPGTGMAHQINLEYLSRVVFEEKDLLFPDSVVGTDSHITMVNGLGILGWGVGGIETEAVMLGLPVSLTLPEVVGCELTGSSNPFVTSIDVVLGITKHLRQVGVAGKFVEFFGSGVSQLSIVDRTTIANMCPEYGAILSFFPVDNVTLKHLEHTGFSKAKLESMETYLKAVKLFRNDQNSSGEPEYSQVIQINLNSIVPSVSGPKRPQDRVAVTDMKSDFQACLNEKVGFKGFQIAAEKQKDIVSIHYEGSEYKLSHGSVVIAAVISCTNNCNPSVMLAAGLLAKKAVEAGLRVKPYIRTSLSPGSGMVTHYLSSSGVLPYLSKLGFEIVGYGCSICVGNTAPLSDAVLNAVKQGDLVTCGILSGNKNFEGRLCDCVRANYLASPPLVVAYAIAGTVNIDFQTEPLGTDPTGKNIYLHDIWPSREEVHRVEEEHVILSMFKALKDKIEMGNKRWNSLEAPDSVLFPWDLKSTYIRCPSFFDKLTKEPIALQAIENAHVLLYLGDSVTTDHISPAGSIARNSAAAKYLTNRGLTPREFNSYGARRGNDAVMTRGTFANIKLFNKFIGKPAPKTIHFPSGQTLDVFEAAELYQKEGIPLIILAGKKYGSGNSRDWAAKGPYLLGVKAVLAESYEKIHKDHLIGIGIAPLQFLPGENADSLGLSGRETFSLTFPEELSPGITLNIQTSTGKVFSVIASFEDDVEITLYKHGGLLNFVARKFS
Procedure: In vitro displacement of IRPs by gel mobility shift assays. SNCA IRE hairpin RNA was 5′-end labeled with [γ-^32P]ATP as previously described^5. Approximately, 2 pmoles of ^32P labeled RNA per 20 μL reaction was folded in 1× Assay Buffer by heating at 65° C. for 5 min and slowly cooling to room temperature. As indicated, vehicle, Synucleozid (0.2, 1, 5 μM) or unlabeled IRE RNA (1 μM, folded as described above and used as a positive control) was added to the samples, and the samples were incubated at room temperature for varying amounts of time (1-60 min as indicated). Then, 0.5 μg IRP-1 or IRP-2 (Abnova) was added, and the samples were incubated at room temperature for an additional 30 min. An equal volume of 2× Native Gel Loading Buffer (2×TBE, 50% Glycerol, 0.025% (w/v) Bromophenol blue and Xylene cyanol FF) was added to each sample. Note, Native Gel Loading Buffer added to Synucleozid-treated samples was supplemented with the same concentration of Synucleozid as in the sample to maintain a constant concentration. IRP:IRE complexes and free IRE were separated on a native 15% polyacrylamide prepared 1×TBE supplemented with the same concentration of Synucleozid as in compound-treated samples, and imaged using a Bio-Rad PMI phosphorimager. Images were quantified with BioRad's Quantity One software.

tRNA = test: Competitive binding assay (2-AP), tRNA
Procedure: I and I0 are the observed fluorescence intensity in the presence and absence of 2-AP RNA. Δε is the difference between the fluorescence intensity in the absence and presence of infinite 2-AP RNA. […] EC50 was calculated from Eq. (1). […] The change of fluorescence intensity was fit to Eq. (2):
θ is the percentage of 2-AP RNA bound. [RNA] is the concentration of 2-AP RNA. EC50 is the EC50 of Synucleozid determined in the assay above. [Synucleozid] is the concentration of Synucleozid. Cc is the concentration of competitive RNA. Kd is competitive dissociation constant and A is a constant.

SMILES: N=C(N)c1ccc(Nc2ccc(-c3cc4ccc(C(=N)N)cc4[nH]3)cc2)cc1 [Synucleozid A]
- cytoprotection against toxicity of α-synuclein PFFs (LDH release) [1]: mitigated the toxicity induced by PFFs in a concentration dependent manner
- cytoprotection against toxicity of α-synuclein PFFs (LDH release) ([1]; listed as Synucleozid): abrogates cytotoxicity
- Kd [2]: ~20 µM
- reduction of avidity compared to the native IRE [2]: 10 fold
- effect on thermal stability of A-bulge-mutated RNA [3]: no significant effect
- association of ribosomes with a control RNA (SNCA mRNA): does not affect
- decrease of SNCA mRNA associated with active polysomes (SNCA mRNA; SH-SY5Y cells): ~20%
- SNCA mRNA associated with incomplete ribosomes (SNCA mRNA; fractions 1-5): increase
- effect on binding of IRP-2 to SNCA IRE RNA [4]: Neither Synucleozid concentration (0.2, 1, 5 μM) nor pre-incubation time (1, 5, 15, 60 min) has any significant effect
- competitor RNA concentration needed for recovery of 2-AP emission (tRNA): > 100 µM
